Assays:
Ilyonectria destructans [1] = experiment: N-Acylation of compound was determined after 22 hr incubation at 250 mg/mL concentration using Cylindrocarpon radicicola resting cells and residual amine was evaluated
Ilyonectria destructans [2] = experiment: N-Acylation of amine was determined after 22 hr incubation at 250 mg/mL concentration using Cylindrocarpon radicicola resting cells to amide expressed as enantioselectivity coefficient (amine/amide): 59/41
Ilyonectria destructans [3] = experiment: N-Acylation of amine was determined after 22 hr incubation at 250 mg/mL concentration using Cylindrocarpon radicicola resting cells to amide expressed as enantioselectivity coefficient (amine/amide): 53/47
Ilyonectria destructans [4] = experiment: N-Acylation of amine was determined after 22 hr incubation at 250 mg/mL concentration using Cylindrocarpon radicicola resting cells to amide expressed as enantioselectivity coefficient (amine/amide): 52/48
Ilyonectria destructans [5] = experiment: N-Acylation of amine was determined after 22 hr incubation at 250 mg/mL concentration using Cylindrocarpon radicicola resting cells to amide expressed as enantioselectivity coefficient (amine/amide): 65/35
Ilyonectria destructans [6] = experiment: N-Acylation of amine was determined after 22 hr incubation at 250 mg/mL concentration using Cylindrocarpon radicicola resting cells to amide expressed as enantioselectivity coefficient (amine/amide): 48/52

Row | SMILES | Residual amine (ee) (Ilyonectria destructans [1]) [%] | also measured
1 | NC(c1ccccc1)c1ccc(Cl)cc1 (stereo not given) | 0 | Enantioselectivity coefficient (Ilyonectria destructans [2]): 59
2 | CC(N)COc1ccccc1 (stereo not given) | 95 | Enantioselectivity coefficient (Ilyonectria destructans [3]): 53
3 | NC1CCc2ccccc21 (stereo not given) | 0 | Enantioselectivity coefficient (Ilyonectria destructans [4]): 52
4 | CC(CN)c1ccccc1 (stereo not given) | 0 | Enantioselectivity coefficient (Ilyonectria destructans [5]): 65
5 | NC(Cc1ccccc1)c1ccccc1 (stereo not given) | 80 | Enantioselectivity coefficient (Ilyonectria destructans [6]): 48

Source: ChEMBL document CHEMBL1127217, “Enantioselective acetylation of primary amines by Cylindrocarpon radicicola” (Bioorg Med Chem Lett, 1993)
